Source: ChEMBL document CHEMBL1152667, “Synthesis and radiopharmacological investigation of 3-[4'-[(18)F]fluorobenzylidene]indolin-2-one as possible tyrosine kinase inhibitor” (Bioorg Med Chem, 2009)

Columns and labels:
Femur = assay: Biodistribution in Wistar rat femur at 1.7 MBq, iv administered as single dose measured after 5 mins post-injection by gamma counting; format: ADME, organism-based; settings: in vivo
Pancreas [1] = assay: Biodistribution in Wistar rat pancreas at 1.7 MBq, iv administered as single dose measured after 10 mins post-injection by gamma counting; format: ADME, organism-based; settings: in vivo
Spleen [2] = assay: Biodistribution in Wistar rat spleen at 1.7 MBq, iv administered as single dose measured after 10 mins post-injection by gamma counting; format: ADME, organism-based; settings: in vivo
Adrenal gland [3] = assay: Biodistribution in Wistar rat adrenal gland at 1.7 MBq, iv administered as single dose measured after 10 mins post-injection by gamma counting; format: ADME, organism-based; settings: in vivo
Brain = assay: Biodistribution in Wistar rat brain at 1.7 MBq, iv administered as single dose measured after 30 mins post-injection by gamma counting; format: ADME, organism-based; settings: in vivo, 0.5 h
[4] = Ratio of drug level in brown adipose tissue to blood in Wistar rat at 1.7 MBq, iv administered as single dose measured after 60 mins post-injection; format: ADME, organism-based
[5] = Ratio of drug level in pancreas to blood in Wistar rat at 1.7 MBq, iv administered as single dose measured after 60 mins post-injection; format: ADME, organism-based
[6] = Phase 2 elimination half life in Wistar rat at 30 MBq, iv by radio-HPLC analysis; format: ADME, organism-based; settings: in vivo, read-out: beta t1/2 (converted)
[7] = Biodistribution in Wistar rat urine at 1.7 MBq, iv administered as single dose measured after 30 mins post-injection by gamma counting; format: ADME, organism-based; settings: in vivo, 0.5 h
Pancreas [8] = assay: Biodistribution in Wistar rat pancreas at 1.7 MBq, iv administered as single dose measured after 60 mins post-injection by gamma counting; format: ADME, organism-based; settings: in vivo, 1 h
Spleen [9] = assay: Biodistribution in Wistar rat spleen at 1.7 MBq, iv administered as single dose measured after 60 mins post-injection by gamma counting; format: ADME, organism-based; settings: in vivo, 1 h
Thymus [10] = assay: Biodistribution in Wistar rat thymus at 1.7 MBq, iv administered as single dose measured after 60 mins post-injection by gamma counting; format: ADME, organism-based; settings: in vivo, 1 h
Harderian gland = assay: Biodistribution in Wistar rat harderian gland at 1.7 MBq, iv administered as single dose measured after 60 mins post-injection by gamma counting; format: ADME, organism-based; settings: in vivo, 1 h
Liver [11] = assay: Biodistribution in Wistar rat liver at 1.7 MBq, iv administered as single dose measured after 60 mins post-injection by gamma counting; format: ADME, organism-based; settings: in vivo, 1 h
Testes = assay: Biodistribution in Wistar rat testes at 1.7 MBq, iv administered as single dose measured after 60 mins post-injection by gamma counting; format: ADME, organism-based, Testis; settings: in vivo, 1 h
Intestine [12] = assay: Biodistribution in Wistar rat intestine at 1.7 MBq, iv administered as single dose measured after 60 mins post-injection by gamma counting; format: ADME, organism-based; settings: in vivo, 1 h
[13] = Biodistribution in Wistar rat urine at 1.7 MBq, iv administered as single dose measured after 60 mins post-injection by gamma counting; format: ADME, organism-based; settings: in vivo, 1 h
[14] = Ratio of drug level in liver to blood in Wistar rat at 1.7 MBq, iv administered as single dose measured after 5 mins post-injection; format: ADME, organism-based
[15] = Ratio of drug level in brown adipose tissue to blood in Wistar rat at 1.7 MBq, iv administered as single dose measured after 5 mins post-injection; format: ADME, organism-based
[16] = Biodistribution in Wistar rat brown adipose tissue assessed as standard uptake value at 1.7 MBq, iv administered as single dose measured after 30 mins post-injection by gamma counting; format: ADME, organism-based; settings: in vivo, 0.5 h
Pancreas [17] = assay: Biodistribution in Wistar rat pancreas assessed as standard uptake value at 1.7 MBq, iv administered as single dose measured after 30 mins post-injection by gamma counting; format: ADME, organism-based; settings: in vivo, 0.5 h
Adrenal gland [18] = assay: Biodistribution in Wistar rat adrenal gland assessed as standard uptake value at 1.7 MBq, iv administered as single dose measured after 30 mins post-injection by gamma counting; format: ADME, organism-based; settings: in vivo, 0.5 h
Blood = assay: Biodistribution in Wistar rat blood assessed as standard uptake value at 1.7 MBq, iv administered as single dose measured after 1 min post-injection by gamma counting; format: ADME, organism-based; settings: in vivo
Adrenal gland [19] = assay: Biodistribution in Wistar rat adrenal gland assessed as standard uptake value at 1.7 MBq, iv administered as single dose measured after 1 min post-injection by gamma counting; format: ADME, organism-based; settings: in vivo
Kidney [20] = assay: Biodistribution in Wistar rat kidney assessed as standard uptake value at 1.7 MBq, iv administered as single dose measured after 1 min post-injection by gamma counting; format: ADME, organism-based; settings: in vivo
Thymus [21] = assay: Biodistribution in Wistar rat thymus assessed as standard uptake value at 1.7 MBq, iv administered as single dose measured after 1 min post-injection by gamma counting; format: ADME, organism-based; settings: in vivo
Heart = assay: Biodistribution in Wistar rat heart assessed as standard uptake value at 1.7 MBq, iv administered as single dose measured after 30 mins post-injection by gamma counting; format: ADME, organism-based; settings: in vivo, 0.5 h
Muscle tissue [22] = assay: Biodistribution in Wistar rat muscle assessed as standard uptake value at 1.7 MBq, iv administered as single dose measured after 60 mins post-injection by gamma counting; format: ADME, organism-based; settings: in vivo, 1 h
Pancreas [23] = assay: Biodistribution in Wistar rat pancreas assessed as standard uptake value at 1.7 MBq, iv administered as single dose measured after 5 mins post-injection by gamma counting; format: ADME, organism-based; settings: in vivo
Muscle tissue [24] = assay: Biodistribution in Wistar rat muscle assessed as standard uptake value at 1.7 MBq, iv administered as single dose measured after 5 mins post-injection by gamma counting; format: ADME, organism-based; settings: in vivo
Pancreas [25] = assay: Biodistribution in Wistar rat pancreas at 1.7 MBq, iv administered as single dose measured after 1 min post-injection by gamma counting; format: ADME, organism-based; settings: in vivo
Spleen [26] = assay: Biodistribution in Wistar rat spleen at 1.7 MBq, iv administered as single dose measured after 1 min post-injection by gamma counting; format: ADME, organism-based; settings: in vivo
Kidney [27] = assay: Biodistribution in Wistar rat kidney at 1.7 MBq, iv administered as single dose measured after 1 min post-injection by gamma counting; format: ADME, organism-based; settings: in vivo
Pancreas [28] = assay: Biodistribution in Wistar rat pancreas assessed as standard uptake value at 1.7 MBq, iv administered as single dose measured after 10 mins post-injection by gamma counting; format: ADME, organism-based; settings: in vivo
Spleen [29] = assay: Biodistribution in Wistar rat spleen assessed as standard uptake value at 1.7 MBq, iv administered as single dose measured after 10 mins post-injection by gamma counting; format: ADME, organism-based; settings: in vivo
Kidney [30] = assay: Biodistribution in Wistar rat kidney assessed as standard uptake value at 1.7 MBq, iv administered as single dose measured after 10 mins post-injection by gamma counting; format: ADME, organism-based; settings: in vivo
[31] = Biodistribution in Wistar rat adipose tissue assessed as standard uptake value at 1.7 MBq, iv administered as single dose measured after 10 mins post-injection by gamma counting; format: ADME, organism-based; settings: in vivo
[32] = Biodistribution in Wistar rat thyroid gland assessed as standard uptake value at 1.7 MBq, iv administered as single dose measured after 10 mins post-injection by gamma counting; format: ADME, organism-based; settings: in vivo
Liver [33] = assay: Biodistribution in Wistar rat liver at 1.7 MBq, iv administered as single dose measured after 1 min post-injection by gamma counting; format: ADME, organism-based; settings: in vivo
Intestine [34] = assay: Biodistribution in Wistar rat intestine at 1.7 MBq, iv administered as single dose measured after 1 min post-injection by gamma counting; format: ADME, organism-based; settings: in vivo
[35] = Biodistribution in Wistar rat stomach at 1.7 MBq, iv administered as single dose measured after 1 min post-injection by gamma counting; format: ADME, organism-based; settings: in vivo
[36] = Biodistribution in Wistar rat urine at 1.7 MBq, iv administered as single dose measured after 1 min post-injection by gamma counting; format: ADME, organism-based; settings: in vivo

- Drug uptake (Femur): 0.35 %ID
- Drug uptake (Pancreas [1]): 0.28 %ID
- Drug uptake (Spleen [2]): 0.14 %ID
- Drug uptake (Adrenal gland [3]): 0.1 %ID
- Drug uptake (Brain): 0.44 %ID
- Kp at 1 h [4]: 4.3
- Kp at 1 h [5]: 2.1
- half-life [6]: 4.45 min
- Drug uptake [7]: 11.23 %ID
- Drug uptake (Pancreas [8]): 0.07 %ID
- Drug uptake (Spleen [9]): 0.04 %ID
- Drug uptake (Thymus [10]): 0.05 %ID
- Drug uptake (Harderian gland): 0.06 %ID
- Drug uptake (Liver [11]): 5.98 %ID
- Drug uptake (Testes): 0.24 %ID
- Drug uptake (Intestine [12]): 30.16 %ID
- Drug uptake [13]: 43.53 %ID
- Kp at 5 min [14]: 6.7
- Kp at 5 min [15]: 4.1
- SUV [16]: 0.98%
- SUV (Pancreas [17]): 0.55%
- SUV (Adrenal gland [18]): 1.39%
- SUV (Blood): 0.83%
- SUV (Adrenal gland [19]): 4.95%
- SUV (Kidney [20]): 3.36%
- SUV (Thymus [21]): 1.1%
- SUV (Heart): 0.44%
- SUV (Muscle tissue [22]): 0.19%
- SUV (Pancreas [23]): 1.66%
- SUV (Muscle tissue [24]): 0.83%
- Drug uptake (Pancreas [25]): 0.56 %ID
- Drug uptake (Spleen [26]): 0.31 %ID
- Drug uptake (Kidney [27]): 3.13 %ID
- SUV (Pancreas [28]): 1.13%
- SUV (Spleen [29]): 0.52%
- SUV (Kidney [30]): 2.27%
- SUV [31]: 1.26%
- SUV [32]: 0.75%
- Drug uptake (Liver [33]): 17.16 %ID
- Drug uptake (Intestine [34]): 8.84 %ID
- Drug uptake [35]: 0.71 %ID
- Drug uptake [36]: 3.97 %ID
SMILES: O=C1Nc2ccccc2/C1=C/c1ccc([18F])cc1
